Measurements: patent US20210317092A1 (BAYER PHARMA AKTIENGESELLSCHAFT, priority 2016, published 2021)
Read-outs that look alike come from different tables or passages of the source.

Biological target: T1, human Bradykinin B1 receptor (Homo sapiens, UniProt P46663)
T1 construct: host or cells: CHO-K1
T1 sequence (P46663 1-353): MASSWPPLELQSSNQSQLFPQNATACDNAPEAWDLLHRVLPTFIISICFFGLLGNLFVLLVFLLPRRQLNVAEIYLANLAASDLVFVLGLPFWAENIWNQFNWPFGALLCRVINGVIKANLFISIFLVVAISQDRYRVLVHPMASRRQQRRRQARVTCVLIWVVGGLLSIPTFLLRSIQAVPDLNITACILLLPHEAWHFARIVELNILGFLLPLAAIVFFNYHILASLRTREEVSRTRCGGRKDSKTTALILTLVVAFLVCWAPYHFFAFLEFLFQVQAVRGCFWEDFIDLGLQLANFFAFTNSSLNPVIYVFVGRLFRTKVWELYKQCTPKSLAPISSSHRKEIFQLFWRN
Test: Calcium flux Assay (FLIPR) with recombinant CHO-K1 cells expressing human Bradykinin B1 receptor, in presence (hB1 IC50) or absence (hB1 free IC50) of 0.1% BSA
Format: cell-based

[1] = in absence of 0.1% BSA, read-out: hB1 free IC50
[2] = in presence of 0.1% BSA, read-out: hB1 IC50

SMILES	IC50 [1]	IC50 [2]
O=C(Nc1cc(Cl)c(-c2ccc(C(F)(F)F)nc2)c(-c2nnn[nH]2)c1)C1(c2ccc(F)c(F)c2)CC1 [Example 303, N-{3-chloro-5-(1H-tetrazol-5-yl)-4-[6-(trifluoromethyl)pyridin-3-yl]phenyl}-1-(3,4-difluorophenyl)cy-clopropanecar-boxamide]	52 nM	
O=C(Nc1cc(Cl)c(-c2ccc(C(F)(F)F)nc2)c(-c2nnn[nH]2)c1)C1(c2ccc(C(F)(F)F)cc2F)CC1 [Example 304, N-{3-chloro-5-(1H-tetrazol-5-yl)-4-[6-(trifluoromethyl)pyridin-3-yl]phenyl}-1-[2-fluoro-4-(trifluoromethyl)phenyl]cyclopro-panecarboxamide]	18.5 nM	
CCOc1ccc(-c2ccc(NC(=O)C3(c4ccccc4)CC3)cc2-c2nnn[nH]2)cn1 [Example 306, N-[4-(6-ethoxypyridin-3-yl)-3-(1H-tetrazol-5-yl)phenyl]-1-phenylcyclopropane-carboxamide]	45.7 nM	133 nM
CCOc1ccc(-c2ccc(NC(=O)C(C)(C)C)cc2-c2nnn[nH]2)cn1 [Example 309, N-[4-(6-ethoxypyridin-3-yl)-3-(1H-tetrazol-5-yl)phenyl]-2,2-dimethylpropan-amide]	587 nM	
O=C(Nc1ccc(-c2ccc(OCC(F)(F)F)nc2)c(-c2nnn[nH]2)c1)C1(c2cccc(Cl)c2)CC1 [Example 313, 1-(3-chlorophenyl)-N-{3-(1H-tetrazol-5-yl)-4-[6-(2,2,2-trifluoroethoxy)-pyridin-3-yl]phenyl}cyclopropanecarboxamide]		191 nM
COc1ccc(-c2ccc(NC(=O)C3(c4cccc(Cl)c4)CC3)cc2-c2nnn[nH]2)cc1 [Example 314, 1-(3-chlorophenyl)-N-[4′-methoxy-2-(1H-tetrazol-5-yl)biphenyl-4-yl]cyclopropane-carboxamide]		340 nM
COc1ccc(-c2ccc(NC(=O)C3(c4cccc(Cl)c4)CC3)cc2-c2nnn[nH]2)cc1F [Example 315, 1-(3-chlorophenyl)-N-[3′-fluoro-4′-methoxy-2-(1H-tetrazol-5-yl)biphenyl-4-yl]cyclopropane-carboxamide]		235 nM
COc1ccc(-c2ccc(NC(=O)C3(c4cccc(Cl)c4)CC3)cc2-c2nnn[nH]2)cn1 [Example 316, 1-(3-chlorophenyl)-N-[4-(6-methoxypyridin-3-yl)-3-(1H-tetrazol-5-yl)phenyl]cyclopro-panecarboxa-mide]		328 nM
O=C(Nc1ccc(-c2ccc(OC(F)(F)F)cc2)c(-c2nnn[nH]2)c1)C1(c2cccc(Cl)c2)CC1 [Example 317, 1-(3-chlorophenyl)-N-[2-(1H-tetrazol-5-yl)-4′-(trifluoromethoxy)biphenyl-4-yl]cyclopropane-carboxamide]		52.9 nM
CCOc1cncc(-c2ccc(NC(=O)C3(c4cccc(Cl)c4)CC3)cc2-c2nnn[nH]2)c1 [Example 318, 1-(3-chlorophenyl)-N-[4-(5-ethoxypyridin-3-yl)-3-(1H-tetrazol-5-yl)phenyl]cyclopro-panecarboxa-mide]		59.1 nM
CS(=O)(=O)c1cncc(-c2ccc(NC(=O)C3(c4cccc(Cl)c4)CC3)cc2-c2nnn[nH]2)c1 [Example 319, 1-(3-Chlorophenyl)-N-{4-[5-(methylsulfonyl)pyridin-3-yl]-3-(1H-tetrazol-5-yl)phenyl}cyclopro-panecarboxa-mide]	436 nM	521 nM
COc1cc(-c2ccc(NC(=O)C3(c4cccc(Cl)c4)CC3)cc2-c2nnn[nH]2)ccn1 [Example 320, 1-(3-Chlorophenyl)-N-[4-(2-methoxypyridin-4-yl)-3-(1H-tetrazol-5-yl)phenyl]cyclopro-panecarboxa-mide]		208 nM
O=C(Nc1ccc(-c2cnc3ccoc3c2)c(-c2nnn[nH]2)c1)C1(c2cccc(Cl)c2)CC1 [Example 321, 1-(3-chlorophenyl)-N-[4-(furo[3,2-b]pyridin-6-yl)-3-(1H-tetrazol-5-yl)phenyl]cyclopro-panecarboxa-mide]		152 nM
O=C(Nc1ccc(-c2ccc(N3CCOCC3)cc2)c(-c2nnn[nH]2)c1)C1(c2cccc(Cl)c2)CC1 [Example 322, 1-(3-chlorophenyl)-N-[4′-(morpholin-4-yl)-2-(1H-tetrazol-5-yl)biphenyl-4-yl]cyclopropane carboxamide]		238 nM
N#Cc1ccc(-c2ccc(NC(=O)C3(c4cccc(Cl)c4)CC3)cc2-c2nnn[nH]2)cn1 [Example 323, 1-(3-chlorophenyl)-N-[4-(6-cyanopyridin-3-yl)-3-(1H-tetrazol-5-yl)phenyl]cyclopro-panecarboxa-mide]		355 nM
N#Cc1cc(-c2ccc(NC(=O)C3(c4cccc(Cl)c4)CC3)cc2-c2nnn[nH]2)ccc1Cl [Example 325, N-[4′-chloro-3′-cyano-2-(1H-tetrazol-5-yl)biphenyl-4-yl]-1-(3-chlorophenyl)cy-clopropanecarbox-amide]		1740 nM
CN1CCN(c2ccc(-c3ccc(NC(=O)C4(c5cccc(Cl)c5)CC4)cc3-c3nnn[nH]3)cc2)CC1 [Example 330, 1-(3-chlorophenyl)-N-[4′-(4-methylpiperazin-1-yl)-2-(1H-tetrazol-5-yl)biphenyl-4-yl]cyclopropane carboxamide]	141 nM	158 nM
CS(=O)(=O)Nc1ccc(-c2ccc(NC(=O)C3(c4cccc(Cl)c4)CC3)cc2-c2nnn[nH]2)cc1 [Example 331, 1-(3-chloropehnyl)-N-{4′-[(methylsulfonyl)amino]-2-(1H-tetrazol-5-yl)biphenyl-4-yl}cyclopropane carboxamide]	162 nM	206 nM
O=C(Nc1ccc(-c2cc3c(Cl)nccc3o2)c(-c2nnn[nH]2)c1)C1(c2cccc(Cl)c2)CC1 [Example 332, N-[4-(4-chlorofuro[3,2-c]pyridin-2-yl)-3-(1H-tetrazol-5-yl)phenyl]-1-(3-chlorophenyl)cy-clopropanecarbox-amide]	191 nM	274 nM
COc1ncc(-c2ccc(NC(=O)C3(c4cccc(Cl)c4)CC3)cc2-c2nnn[nH]2)cn1 [Example 333, 1-(3-chlorophenyl)-N-[4-(2-methoxypyrimidin-5-yl)-3-(1H-tetrazol-5-yl)phenyl]cyclopro-panecarboxa-mide]		420 nM
N#Cc1ncc(-c2ccc(NC(=O)C3(c4cccc(Cl)c4)CC3)cc2-c2nnn[nH]2)cn1 [Example 334, 1-(3-chlorophenyl)-N-[4-(2-cyanopyrimidin-5-yl)-3-(1H-tetrazol-5-yl)phenyl]cyclopro-panecarboxa-mide]	99.8 nM	936 nM
O=C(Nc1ccc(-c2cncc(F)c2)c(-c2nnn[nH]2)c1)C1(c2cccc(Cl)c2)CC1 [Example 335, 1-(3-chlorophenyl)-N-[4-(5-fluoropyridin-3-yl)-3-(1H-tetrazol-5-yl)phenyl]cyclopro-panecarboxa-mide]	298 nM	517 nM
N#Cc1cncc(-c2ccc(NC(=O)C3(c4cccc(Cl)c4)CC3)cc2-c2nnn[nH]2)c1 [Example 336, 1-(3-chlorophenyl)-N-[4-(5-cyanopyridin-3-yl)-3-(1H-tetrazol-5-yl)phenyl]cyclopro-panecarboxa-mide]		1320 nM
N#Cc1cc(F)cc(-c2ccc(NC(=O)C3(c4cccc(Cl)c4)CC3)cc2-c2nnn[nH]2)c1 [Example 337, 1-(3-chlorophenyl)-N-[3′-cyano-5′-fluoro-2-(1H-tetrazol-5-yl)biphenyl-4-yl]cyclopropane carboxamide]		2030 nM
Cn1ncc2cc(-c3ccc(NC(=O)C4(c5cccc(Cl)c5)CC4)cc3-c3nnn[nH]3)ccc21 [Example 339, 1-(3-chlorophenyl)-N-[4-(1-methyl-1H-indazol-5-yl)-3-(1H-tetrazol-5-yll)phenyl]cyclopro-panecarboxa-mide]	23.7 nM	46.7 nM
O=C(Nc1ccc(-c2ccc(Cl)nc2)c(-c2nnn[nH]2)c1)C1(c2cccc(Cl)c2)CC1 [Example 341, 1-(3-chlorophenyl)-N-[4-(6-chloropyridin-3-yl)-3-(1H-tetrazol-5-yl)phenyl]cyclopro-panecarboxa-mide]	87.3 nM	115 nM
CCOc1ccc(-c2cc(F)c(NC(=O)C3(c4cccc(Cl)c4)CC3)cc2-c2nnn[nH]2)cn1 [Example 342, 1-(3-chlorophenyl)-N-[4-(6-ethoxypyridin-3-yl)-2-fluoro-5-(1H-tetrazol-5-yl)phenyl]cyclopro-panecarboxa-mide]		1770 nM
O=C(Nc1ccc(-n2cc(C(F)(F)F)cn2)c(-c2nnn[nH]2)c1)C1(c2ccc(C(F)(F)F)cc2F)CC1 [Example 345, 1-[2-Fluoro-4-(trifluoromethyl)phenyl]-N-{3-(1H-tetrazol-5-yl)-4-[4-(trifluoromethyl)-1H-pyrazol-1-yl]phenyl}cyclopropanecarboxamide]	28.5 nM	
O=C(Nc1ccc(-n2cc(C(F)F)cn2)c(-c2nnn[nH]2)c1)C1(c2ccc(C(F)(F)F)cc2F)CC1 [Example 346, N-{4-[4-(Difluoromethyl)-1H-pyrazol-1-yl]-3-(1H-tetrazol-5-yl)phenyl}-1-[2-fluoro-4-(trifluoromethyl)phenyl]cyclopro-panecarboxamide]	65.9 nM	
O=C(Nc1ccc(-n2cnc(C(F)(F)F)c2)c(-c2nnn[nH]2)c1)C1(c2ccc(C(F)(F)F)cc2F)CC1 [Example 347, 1-[2-Fluoro-4-(trifluoromethyl)phenyl]-N-{3-(1H-tetrazol-5-yl)-4-[4-(trifluoromethyl)-1H-imidazol-1-yl]phenyl}cyclopro-panecarboxa-mide]	96.6 nM	
